This passage reports Ki results from patent US6287794A, “Factor Vlla inhibitors” (Aventis Pharma Deutschland GmbH, priority 1998, dated 2001).

This test has as its target T1, human factor VIIa and TF (Homo sapiens, UniProt P08709).
T1 construct: human factor VIIa and TF
Kind of test: Determination of Ki for FVIIa inhibition (chromogenic assay, substrate S-2288). The test is classed as biochemical. The following applies: human factor VIIa 5 nM and TF 10 nM, S-2288 500 μM, 25° C., 15 minute preincubation, pH 8.15; read-out: Factor VIIa inhibitory activities Ki. The protocol:
The inhibitory activity (Ki) of each compound towards […] activity was determined using a chromogenic assay essentially as described previously. J. A. Ostrem, F. Al-Obeidi, P. Safar, A. Safarova, S. K. Stringer, M. Patek, M. T. Cross, J. Spoonamore, J. C. LoCascio, P. Kasireddy, D. S. Thorpe, N. Sepetov, M. Lebi, P. Wildgoose, P. Strop, "Discovery of a novel, potent, and specific family of factor Xa inhibitors via combinatorial chemistry". Biochemistry 37 (1998) 1053-1059. Kinetic assays were conducted at 25° C. in half-area microtiter plates (Costar Corp., Cambridge, Mass.) using a kinetic plate reader (Molecular Devices Spectramax 250). A typical assay consisted of 25 μl of human factor VIIa and TF (5 nM and 10 nM, respective final concentration) combined with 40 μl of inhibitor dilutions in 10% DMSO/TBS-PEG buffer (50 mM Tris, 15 mM NaCl, 5 mM CaCl2; 0.05% PEG 8k, pH 8.15). Following a 15 minute preincubation period, the assay was initiated by the addition of 35 μl of the chromogenic substrate S-2288 (D-Ile-Pro-Arg-pNA, Pharmacia Hepar Inc, 500 μM final concentration.). The apparent inhibition constants were calculated from the slope of the progress curves during the linear part of the time course, typically between 1 and 5 min following addition of substrate to the assay. The true Ki was subsequently determined for each compound by correcting for substrate concentration (S) and the Km using the formula Ki=Ki app/(1+(S)/Km). I. H. Segal, Enzyme Kinetics, pp 100-125 (John Wiley & Sons, N.Y., 1975).

Non-standard residues stand in square brackets, D forms with d. Residues, ends and D or L forms follow the SMILES beside them. *: point of attachment. Phe(4-amidino) = N=C(N)c1ccc(C[C@H](N)C(=O)O)cc1; Arg(NO2) = N=C(NCCC[C@H](N)C(=O)O)N[N+](=O)[O-]; Abu(4-CN) = N#CCC[C@H](N)C(=O)O; Cha = N[C@@H](CC1CCCCC1)C(=O)O; Ala(CN) = N#CC[C@H](N)C(=O)O; Chg = N[C@H](C(=O)O)C1CCCCC1; Alloc = C=CCOC(=O)*; Acm = CC(=O)NC*

T1 sequence (P08709 213-466 limits assumed): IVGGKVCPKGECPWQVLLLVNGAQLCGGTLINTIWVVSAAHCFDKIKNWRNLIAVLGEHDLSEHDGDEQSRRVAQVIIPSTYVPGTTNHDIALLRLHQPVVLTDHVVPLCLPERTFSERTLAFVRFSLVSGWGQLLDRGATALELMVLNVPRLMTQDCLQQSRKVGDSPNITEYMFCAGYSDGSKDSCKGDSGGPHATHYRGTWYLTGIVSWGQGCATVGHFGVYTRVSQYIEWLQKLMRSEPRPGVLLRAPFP
T1 sequence (P08709 61-212 limits assumed): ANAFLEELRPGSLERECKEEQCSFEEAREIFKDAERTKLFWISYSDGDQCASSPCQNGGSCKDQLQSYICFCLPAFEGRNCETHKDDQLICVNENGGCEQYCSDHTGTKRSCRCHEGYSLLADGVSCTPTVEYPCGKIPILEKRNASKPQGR
T1 sequence (P13726 33-295 partner): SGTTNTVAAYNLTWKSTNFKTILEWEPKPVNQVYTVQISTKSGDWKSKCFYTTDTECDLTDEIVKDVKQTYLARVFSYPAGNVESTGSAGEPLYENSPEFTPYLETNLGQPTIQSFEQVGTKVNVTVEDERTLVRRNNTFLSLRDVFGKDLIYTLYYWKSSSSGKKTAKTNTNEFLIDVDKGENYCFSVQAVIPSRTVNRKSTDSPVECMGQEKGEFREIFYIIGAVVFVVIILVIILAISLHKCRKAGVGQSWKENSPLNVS

For orientation: Ki means a measure of affinity in units of concentration, obtained from inhibition or displacement. For the compound `C=CCOC(=O)N[C@@H](Cc1ccc(C(=N)N)cc1)C(=O)N[C@@H](CCC(=O)O)C(=O)N[C@@H](CCC#N)C(=O)N[C@@H](CC1CCCCC1)C(N)=O` [Alloc--pAph--Glu-2-Abu(4-CN)--Cha--NH2] (Alloc-[Phe(4-amidino)]E[Abu(4-CN)][Cha]-NH2), the Ki is 63 nM. For `C=CCOC(=O)N[C@@H](Cc1ccc(C(=N)N)cc1)C(=O)N[C@@H](CCC(=O)O)C(=O)N[C@@H](CC#N)C(=O)N[C@@H](CC1CCCCC1)C(N)=O` [Alloc--pAph--Glu--Ala(3-CN)--Cha--NH2] (Alloc-[Phe(4-amidino)]E[Ala(CN)][Cha]-NH2) the value was 120 nM; for `C=CCOC(=O)N[C@@H](Cc1ccc(C(=N)N)cc1)C(=O)N[C@@H](CCC(=O)O)C(=O)N[C@@H](CCCNC(=N)N[N+](=O)[O-])C(=O)N[C@@H](CC1CCCCC1)C(N)=O` [Alloc--pAph--Glu--Arg(NO2)--Cha--NH2] (Alloc-[Phe(4-amidino)]E[Arg(NO2)][Cha]-NH2), 14 nM; for `C=CCOC(=O)N[C@@H](Cc1ccc(C(=N)N)cc1)C(=O)N[C@@H](CCC(=O)O)C(=O)N[C@@H](CCCNC(=N)N)C(=O)N[C@@H](CC1CCCCC1)C(N)=O` [Alloc--pAph--Glu--Arg--Cha--NH2, Alloc-pAph-Glu-Arg-Cha-NH2] (Alloc-[Phe(4-amidino)]ER[Cha]-NH2), 46 nM. `C=CCOC(=O)N[C@@H](Cc1ccc(C(=N)N)cc1)C(=O)N[C@@H](CCC(=O)O)C(=O)N[C@@H](CCCNC(=N)N)C(=O)N[C@H](C(N)=O)C1CCCCC1` [Alloc--pAph--Glu--Arg--Chg--NH2, Alloc-pAph-Glu-Arg-Chg-NH2] (Alloc-[Phe(4-amidino)]ER[Chg]-NH2): the Ki worked out at 238 nM. `C=CCOC(=O)N[C@@H](Cc1ccc(C(=N)N)cc1)C(=O)N[C@@H](CCC(=O)O)C(=O)N[C@@H](CC(N)=O)C(=O)NC1CCCc2ccccc21` (some centres unmarked) [Alloc--pAph--Glu--Asn-1,2,3,4-tetrahydro-1-naphthylamide]: the Ki is 45 nM. As for `C=CCOC(=O)N[C@@H](Cc1ccc(C(=N)N)cc1)C(=O)N[C@@H](CCC(=O)O)C(=O)N[C@@H](CC(N)=O)C(=O)NC(C)c1cccc2ccccc12` (some centres unmarked) [Alloc--pAph--Glu--Asn-1-(1-naphthyl)ethylamide], the figure is 21 nM. As for `C=CCOC(=O)N[C@@H](Cc1ccc(C(=N)N)cc1)C(=O)N[C@@H](CCC(=O)O)C(=O)N[C@@H](CC(N)=O)C(=O)NCc1cccc2ccccc12` [Alloc--pAph--Glu--Asn-1-naphthylmethylamide], the figure is 31 nM; as for `C=CCOC(=O)N[C@@H](Cc1ccc(C(=N)N)cc1)C(=O)N[C@@H](CCC(=O)O)C(=O)N[C@@H](CC(N)=O)C(=O)NCC(c1ccccc1)c1ccccc1` [Alloc--pAph--Glu--Asn-2,2-diphenylethylamide], 49 nM.

On to `C=CCOC(=O)N[C@@H](Cc1ccc(C(=N)N)cc1)C(=O)N[C@@H](CCC(=O)O)C(=O)N[C@@H](CC(N)=O)C(=O)NCc1ccc(F)cc1F` [Alloc--pAph--Glu--Asn-2,4-difluorobenzylamide], for which the Ki stood at 51 nM.

Turning to `C=CCOC(=O)N[C@@H](Cc1ccc(C(=N)N)cc1)C(=O)N[C@@H](CCC(=O)O)C(=O)N[C@@H](CC(N)=O)C(=O)NCCc1cccc2ccccc12` [Alloc--pAph--Glu--Asn-2-(1-naphthyl)ethylamide], the Ki amounted to 22 nM.

As to `C=CCOC(=O)N[C@@H](Cc1ccc(C(=N)N)cc1)C(=O)N[C@@H](CCC(=O)O)C(=O)N[C@@H](CC(N)=O)C(=O)NCCc1ccc2ccccc2c1` [Alloc--pAph--Glu--Asn-2-(2-naphthyl)ethylamide], the inhibition constant Ki worked out at 52 nM. For `C=CCOC(=O)N[C@@H](Cc1ccc(C(=N)N)cc1)C(=O)N[C@@H](CCC(=O)O)C(=O)N[C@@H](CC(N)=O)C(=O)NCCc1ccccn1` [Alloc--pAph--Glu--Asn-2-(2-pyridyl)ethylamide] the value was 71 nM.

Regarding `C=CCOC(=O)N[C@@H](Cc1ccc(C(=N)N)cc1)C(=O)N[C@@H](CCC(=O)O)C(=O)N[C@@H](CC(N)=O)C(=O)NCCc1cccc(Cl)c1` [Alloc--pAph--Glu--Asn-2-(3-chlorophenyl)ethylamide], the Ki worked out at 23 nM. With `C=CCOC(=O)N[C@@H](Cc1ccc(C(=N)N)cc1)C(=O)N[C@@H](CCC(=O)O)C(=O)N[C@@H](CC(N)=O)C(=O)NCCN1CCOCC1` [Alloc--pAph--Glu--Asn-2-(4-morpholinyl)ethylamide], the Ki turned out to be 410 nM. Regarding `C=CCOC(=O)N[C@@H](Cc1ccc(C(=N)N)cc1)C(=O)N[C@@H](CCC(=O)O)C(=O)N[C@@H](CC(N)=O)C(=O)NCCc1ccc(S(N)(=O)=O)cc1` [Alloc--pAph--Glu--Asn-2-(4-sulfamoylphenyl)ethylamide], the Ki was 350 nM.

For the compound `C=CCOC(=O)N[C@@H](Cc1ccc(C(=N)N)cc1)C(=O)N[C@@H](CCC(=O)O)C(=O)N[C@@H](CC(N)=O)C(=O)NCc1ccc2ccccc2c1` [Alloc--pAph--Glu--Asn-2-naphthylmethylamide], the inhibitory constant (Ki) amounted to 27 nM. For `C=CCOC(=O)N[C@@H](Cc1ccc(C(=N)N)cc1)C(=O)N[C@@H](CCC(=O)O)C(=O)N[C@@H](CC(N)=O)C(=O)NCC1CCCO1` (some centres unmarked) [Alloc--pAph--Glu--Asn-2-tetrahydrofuranylmethylamide] the value was 170 nM; for `C=CCOC(=O)N[C@@H](Cc1ccc(C(=N)N)cc1)C(=O)N[C@@H](CCC(=O)O)C(=O)N[C@@H](CC(N)=O)C(=O)NCCC(c1ccccc1)c1ccccc1` [Alloc--pAph--Glu--Asn-3,3-diphenylpropylamide], 24 nM; for `C=CCOC(=O)N[C@@H](Cc1ccc(C(=N)N)cc1)C(=O)N[C@@H](CCC(=O)O)C(=O)N[C@@H](CC(N)=O)C(=O)NCc1ccc(Cl)c(Cl)c1` [Alloc--pAph--Glu--Asn-3,4-dichlorobenzylamide], 26 nM. Take `C=CCOC(=O)N[C@@H](Cc1ccc(C(=N)N)cc1)C(=O)N[C@@H](CCC(=O)O)C(=O)N[C@@H](CC(N)=O)C(=O)NCc1ccc2c(c1)OCO2` [Alloc--pAph--Glu--Asn-3,4-methylenedioxybenzylamide]: the Ki was 120 nM. As for `C=CCOC(=O)N[C@@H](Cc1ccc(C(=N)N)cc1)C(=O)N[C@@H](CCC(=O)O)C(=O)N[C@@H](CC(N)=O)C(=O)NCc1cc(C(F)(F)F)cc(C(F)(F)F)c1` [Alloc--pAph--Glu--Asn-3,5-bistrifluoromethylbenzylamide], the inhibition constant Ki came to 33 nM. For `C=CCOC(=O)N[C@@H](Cc1ccc(C(=N)N)cc1)C(=O)N[C@@H](CCC(=O)O)C(=O)N[C@@H](CC(N)=O)C(=O)NCCC(C)C` [Alloc--pAph--Glu--Asn-3-methylbutylamide] the value was 110 nM. `C=CCOC(=O)N[C@@H](Cc1ccc(C(=N)N)cc1)C(=O)N[C@@H](CCC(=O)O)C(=O)N[C@@H](CC(N)=O)C(=O)NCCCc1ccccc1` [Alloc--pAph--Glu--Asn-3-phenylpropylamide]: the inhibition constant (Ki) is 26 nM. For `C=CCOC(=O)N[C@@H](Cc1ccc(C(=N)N)cc1)C(=O)N[C@@H](CCC(=O)O)C(=O)N[C@@H](CC(N)=O)C(=O)NCc1ccc(N(C)C)cc1` [Alloc--pAph--Glu--Asn-4-dimethylaminobenzylamide] the value was 110 nM. As for `C=CCOC(=O)N[C@@H](Cc1ccc(C(=N)N)cc1)C(=O)N[C@@H](CCC(=O)O)C(=O)N[C@@H](CC(N)=O)C(=O)NCc1ccc(OC)cc1` [Alloc--pAph--Glu--Asn-4-methoxybenzylamide], the figure is 83 nM; as for `C=CCOC(=O)N[C@@H](Cc1ccc(C(=N)N)cc1)C(=O)N[C@@H](CCC(=O)O)C(=O)N[C@@H](CC(N)=O)C(=O)NC1c2ccccc2-c2ccccc21` [Alloc--pAph--Glu--Asn-9-fluorenylamide], 23 nM. For `C=CCOC(=O)N[C@@H](Cc1ccc(C(=N)N)cc1)C(=O)N[C@@H](CCC(=O)O)C(=O)N[C@@H](CC(N)=O)C(=O)N[C@@H](CC1CCCCC1)C(N)=O` [Alloc--pAph--Glu--Asn--Cha--NH2, Alloc-pAph-Glu-Asn-Cha-NH2] (Alloc-[Phe(4-amidino)]EN[Cha]-NH2) the value was 21 nM; for `C=CCOC(=O)N[C@@H](Cc1ccc(C(=N)N)cc1)C(=O)N[C@@H](CCC(=O)O)C(=O)N[C@@H](CC(N)=O)C(=O)NCC1CCCCC1` [Alloc--pAph--Glu--Asn--NH--CH2 --Chx, Alloc-pAph-Glu-Asn-NH--CH2 -Chx], 150 nM; for `C=CCOC(=O)N[C@@H](Cc1ccc(C(=N)N)cc1)C(=O)N[C@@H](CCC(=O)O)C(=O)N[C@@H](CC(N)=O)C(=O)N(Cc1ccccc1)Cc1ccccc1` [Alloc--pAph--Glu--Asn-N,N-dibenzylamide], 410 nM. Regarding `C=CCOC(=O)N[C@@H](Cc1ccc(C(=N)N)cc1)C(=O)N[C@@H](CCC(=O)O)C(=O)N[C@@H](CC(N)=O)C(=O)N(C)Cc1cccc2ccccc12` [Alloc--pAph--Glu--Asn-N-methyl-N-(1-naphthylmethyl)amide], the Ki worked out at 1700 nM.

`C=CCOC(=O)N[C@@H](Cc1ccc(C(=N)N)cc1)C(=O)N[C@@H](CCC(=O)O)C(=O)N[C@@H](CSCNC(C)=O)C(=O)N[C@@H](CC1CCCCC1)C(N)=O` [Alloc--pAph--Glu--Cys(Acm)--Cha--NH2] (Alloc-[Phe(4-amidino)]EC(Acm)[Cha]-NH2): the Ki came to 120 nM.
